In the assay the target is D2 receptor (Homo sapiens, UniProt P14416). The assay can be described thus: [3H]Thymidine uptake assay for D2 intrinsic activity. The class given is cell-based. As to conditions: test compound 1 μM, 1 μM Quinpirole = 100% intrinsic activity.
Chain of D2 receptor (P14416 whole entry): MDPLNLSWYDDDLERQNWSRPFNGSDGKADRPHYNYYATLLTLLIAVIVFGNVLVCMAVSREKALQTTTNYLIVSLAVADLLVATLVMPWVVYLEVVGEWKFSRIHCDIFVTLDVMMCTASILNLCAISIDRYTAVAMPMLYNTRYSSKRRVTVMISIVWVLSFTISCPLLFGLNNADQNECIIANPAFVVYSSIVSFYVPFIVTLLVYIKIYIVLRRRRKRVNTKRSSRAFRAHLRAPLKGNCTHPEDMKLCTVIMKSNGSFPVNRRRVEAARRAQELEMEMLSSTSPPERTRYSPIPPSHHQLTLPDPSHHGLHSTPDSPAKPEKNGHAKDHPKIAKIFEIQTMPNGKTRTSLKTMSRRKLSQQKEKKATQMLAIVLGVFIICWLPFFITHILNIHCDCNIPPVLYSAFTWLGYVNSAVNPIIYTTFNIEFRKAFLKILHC

A word on the Emax: it is the maximal effect, on the per cent scale that the assay sets. On to `COc1ccc2cccc(N3CCN(CCCCOc4ccc5c(n4)NC(=O)CC5)CC3)c2n1` [Example A41′, 7-{4-[4-(2-Methoxy-quinolin-8-yl)-piperazin-1-yl]-butoxy}-3,4-dihydro-1H-[1,8]naphthyridin-2-one], for which the Emax at 1 µM (Table 2) was found to be 32%.

For the compound `CC(F)(F)c1ccccc1N1CCN(CCCCOc2ccc3c(n2)NC(=O)CC3)CC1` [Example A42, 7-(4-{4-[2-(1,1-Difluoro-ethyl)-phenyl]-piperazin-1-yl}-butoxy)-3,4-dihydro-1H-[1,8]naphthyridin-2-one], the maximal response (Emax) at 1 µM (Table 1) turned out to be 28%.

Compound `O=C1CCc2ccc(OCCCCN3CCN(c4ccccn4)CC3)nc2N1` [Example A43, 7-[4-(4-Pyridin-2-yl-piperazin-1-yl)-butoxy]-3,4-dihydro-1H-[1,8]naphthyridin-2-one] yielded an Emax at 1 µM (Table 1) of 75%.

Under “Table 2”, `COc1ccc2c(N3CCN(CCCCOc4ccc5c(n4)NC(=O)CC5)CC3)cccc2n1` [Example A43′, 7-{4-[4-(2-Methoxy-quinolin-5-yl)-piperazin-1-yl]-butoxy}-3,4-dihydro-1H-[1,8]naphthyridin-2-one] showed a maximal response (Emax) at 1 µM of 32%.

Consider `Cc1cccc(N2CCN(CCCCOc3ccc4c(n3)NC(=O)CC4)CC2)n1` [Example A44, 7-{4-[4-(6-Methyl-pyridin-2-yl)-piperazin-1-yl]-butoxy}-3,4-dihydro-1H-[1,8]naphthyridin-2-one], for which the Emax at 1 µM (Table 1) was found to be 51%.

Under “Table 2”, `O=C1CCc2ccc(OCCCCN3CCN(c4cccc5nccnc45)CC3)nc2N1` [Example A44′, 7-[4-(4-Quinoxalin-5-yl-piperazin-1-yl)-butoxy]-3,4-dihydro-1H-[1,8]naphthyridin-2-one] showed an Emax at 1 µM of 29%.

With `CCc1cccc(N2CCN(CCCCOc3ccc4c(n3)NC(=O)CC4)CC2)n1` [Example A45, 7-{4-[4-(6-Ethyl-pyridin-2-yl)-piperazin-1-yl]-butoxy}-3,4-dihydro-1H-[1,8]naphthyridin-2-one], the Emax at 1 µM (Table 1) was 34%.

As for `O=C1CCc2ccc(OCCCCN3CCN(c4cccc(C5CC5)n4)CC3)nc2N1` [Example A46, 7-{4-[4-(6-Cyclopropyl-pyridin-2-yl)-piperazin-1-yl]-butoxy}-3,4-dihydro-1H-[1,8]naphthyridin-2-one], the Emax at 1 µM (Table 1) stood at 41%.

As to `O=C1CCc2ccc(OCCCCN3CCN(c4cccc5ccc(=O)[nH]c45)CC3)nc2N1` [Example A47′, 7-{4-[4-(2-Oxo-1,2-dihydro-quinolin-8-yl)-piperazin-1-yl]-butoxy}-3,4-dihydro-1H-[1,8]naphthyridin-2-one], where the note is “Table 2”, the maximal response (Emax) at 1 µM is 32%.

As for `O=C1CCc2ccc(OCCCCN3CCN(c4cccc5ccccc45)CC3)nc2N1` [Example A48, 7-[4-(4-Naphthalen-1-yl-piperazin-1-yl)-butoxy]-3,4-dihydro-1H-[1,8]naphthyridin-2-one], the maximal effect (Emax) at 1 µM (Table 1) is 34%.

Consider `O=C1CCc2ccc(OCCCCN3CCN(c4cccc5c4NC(=O)CC5)CC3)nc2N1` [Example A48′, 7-{4-[4-(2-Oxo-1,2,3,4-tetrahydro-quinolin-8-yl)-piperazin-1-yl]-butoxy}-3,4-dihydro-1H-[1,8]naphthyridin-2-one], for which, under “Table 2”, the Emax at 1 µM turned out to be 34%.

In turn, `CN1C(=O)CCc2cccc(N3CCN(CCCCOc4ccc5c(n4)NC(=O)CC5)CC3)c21` [Example A49′, 7-{4-[4-(1-Methyl-2-oxo-1,2,3,4-tetrahydro-quinolin-8-yl)-piperazin-1-yl]-butoxy}-3,4-dihydro-1H-[1,8]naphthyridin-2-one] showed a maximal effect (Emax) at 1 µM (Table 2) of 38%.

`O=C1CCc2ccc(OCCCCN3CCN(c4cc(F)cc5c4CCCC5)CC3)nc2N1` [Example A50, 7-{4-[4-(3-Fluoro-5,6,7,8-tetrahydro-naphthalen-1-yl)-piperazin-1-yl]-butoxy}-3,4-dihydro-1H-[1,8]naphthyridin-2-one] yielded an Emax at 1 µM (Table 1) of 14%.

As to `O=C1CCc2ccc(OCCCCN3CCN(c4cccc5c4C(=O)CCC5)CC3)nc2N1` [Example A51, 7-{4-[4-(8-Oxo-5,6,7,8-tetrahydro-naphthalen-1-yl)-piperazin-1-yl]-butoxy}-3,4-dihydro-1H-[1,8]naphthyridin-2-one], under “Table 1”, the maximal effect (Emax) at 1 µM came out at 20%.

Where the note is “Table 1”, `CC1(C)CCc2cccc(N3CCN(CCCCOc4ccc5c(n4)NC(=O)CC5)CC3)c2C1=O` [Example A52, 7-{4-[4-(7,7-Dimethyl-8-oxo-5,6,7,8-tetrahydro-naphthalen-1-yl)-piperazin-1-yl]-butoxy}-3,4-dihydro-1H-[1,8]naphthyridin-2-one] yielded a maximal effect (Emax) at 1 µM of 32%.

Where the note is “Table 1”, `O=C1CCc2cccc(N3CCN(CCCCOc4ccc5c(n4)NC(=O)CC5)CC3)c2C1` [Example A56, 7-{4-[4-(7-Oxo-5,6,7,8-tetrahydro-naphthalen-1-yl)-piperazin-1-yl]-butoxy}-3,4-dihydro-1H-[1,8]naphthyridin-2-one] showed an Emax at 1 µM of 29%.

Take `O=C1CCc2ccc(OCCCCN3CCN(c4cccc5c4CCCC5(F)F)CC3)nc2N1` [Example A59, 7-{4-[4-(5,5-Difluoro-5,6,7,8-tetrahydro-naphthalen-1-yl)-piperazin-1-yl]-butoxy}-3,4-dihydro-1H-[1,8]naphthyridin-2-one]: the maximum response (Emax) at 1 µM (Table 1) amounted to 30%.

Consider `O=C1CCc2ccc(OCCCCN3CCN(c4cccc5c4CC(F)(F)C5)CC3)nc2N1` [Example A62, 7-{4-[4-(2,2-Difluoro-indan-4-yl)-piperazin-1-yl]-butoxy}-3,4-dihydro-1H-[1,8]naphthyridin-2-one], for which the maximal effect (Emax) at 1 µM (Table 1) came out at 27%.

Compound `O=C1CCc2ccc(OCCCCN3CCN(c4cccc5c4CCCCC5)CC3)nc2N1` [Example A63, 7-{4-[4-(6,7,8,9-Tetrahydro-5H-benzocyclohepten-1-yl)-piperazin-1-yl]-butoxy}-3,4-dihydro-1H-[1,8]naphthyridin-2-one] gave an Emax at 1 µM (Table 1) of 4%.

As for `O=C1CCc2ccc(OCCCCN3CCC(c4cccc5ccccc45)CC3)nc2N1` [Example A64, 7-[4-(4-Naphthalen-1-yl-piperidin-1-yl)-butoxy]-3,4-dihydro-1H-[1,8]naphthyridin-2-one], the maximum response (Emax) at 1 µM (Table 1) amounted to 36%.

On to `O=C1CCc2ccc(OCCCCN3CCN(c4cccc5cccc(F)c45)CC3)nc2N1` [Example A66, 7-{4-[4-(8-Fluoro-naphthalen-1-yl)-piperazin-1-yl]-butoxy}-3,4-dihydro-1H-[1,8]naphthyridin-2-one], for which the maximum response (Emax) at 1 µM (Table 1) was found to be 49%.

Under “Table 1”, `COc1ccc2cccc(N3CCN(CCCCOc4ccc5c(n4)NC(=O)CC5)CC3)c2c1` [Example A73, 7-{4-[4-(7-Methoxy-naphthalen-1-yl)-piperazin-1-yl]-butoxy}-3,4-dihydro-1H-[1,8]naphthyridin-2-one] showed a maximal response (Emax) at 1 µM of 23%.

Consider `O=C1CCc2ccc(OCCCCN3CCN(c4cccc5ccc(Cl)cc45)CC3)nc2N1` [Example A74, 7-{4-[4-(7-Chloro-naphthalen-1-yl)-piperazin-1-yl]-butoxy}-3,4-dihydro-1H-[1,8]naphthyridin-2-one], for which the Emax at 1 µM (Table 1) stood at 37%.

Turning to `O=C1CCc2ccc(OCCCCN3CCN(c4cccc5c(Cl)cccc45)CC3)nc2N1` [Example A75, 7-{4-[4-(5-Chloro-naphthalen-1-yl)-piperazin-1-yl]-butoxy}-3,4-dihydro-1H-[1,8]naphthyridin-2-one], the Emax at 1 µM (Table 1) worked out at 36%.

Where the note is “Table 1”, `O=C1CCc2ccc(OCCCCN3CCN(c4cccc5cc(Cl)ccc45)CC3)nc2N1` [Example A76, 7-{4-[4-(6-Chloro-naphthalen-1-yl)-piperazin-1-yl]-butoxy}-3,4-dihydro-1H-[1,8]naphthyridin-2-one] yielded a maximal response (Emax) at 1 µM of 16%.

For the origin of these results see patent US7160888B2, “[1,8]naphthyridin-2-ones and related compounds for the treatment of schizophrenia” (Warner Lambert Company LLC, priority 2003, dated 2007).
